The record followed here is patent US12279521B2, “Materials for organic electroluminescent devices” (Merck Patent GmbH, priority 2019, dated 2025).

Usually solubility stands for how much of the substance goes into solution per volume.

A short description of data set [1]: Baking of emission layer film at elevated temperature: state of film. In kind it is physicochemical. The settings on record: for State of film after baking at elevated temp.: EML mixture per Table 5. An excerpt: The production of the corresponding OLED components is described below.
The emission layer is composed of at least one matrix material (host material) and an emitting dopant (emitter). In addition, it is possible to use mixtures of a plurality of matrix materials and co-dopants. Details given in such a form as TMM-A (92%):dopant (8%) mean here that the material TMM-A is present in the emission layer in a proportion by weight of 92% and dopant in a proportion by weight of 8%. The mixture for the emission layer is dissolved in toluene or optionally chlorobenzene. The typical solids content of such solutions is about 17 g/I when, as here, the layer thickness of 60 nm which is typical of a device is to be achieved by means of spin-coating. The layers are spun on in an inert gas atmosphere, argon in the present case, and baked for 10 minutes.

A short description of data set [2]: Solubility in organic solvents via HPTLC (after 24 hours and 7 days). The class given is physicochemical. Conditions: for solubility at 24 h: 25 °C; for solubility at 24 h / solubility at 7 days: organic solvent or mixture, thermodynamic from solid; for solubility at 24 h / Solubility after 24 hours, Cyclohexylbenzene / Solubility after 24 hours, Mesitylene / Solubility after 24 hours, Tetralin / Solubility after 24 hours, Toluene: room temperature; for solubility at 7 days / Solubility after 7 days, Cyclohexylbenzene / Solubility after 7 days, Mesitylene / Solubility after 7 days, Tetralin / Solubility after 7 days, Toluene: 7 days storage at room temperature. The procedure: One way of processing the materials of the invention is from solution. In addition, it is a feature of materials of the invention that their […] stability is elevated, as apparent from the long-term solubility data in Table 1.
Method of Determining Solubility Via HPTLC
Sample preparation: The material is weighed out in two 25 mg portions (W1, W2), 0.5 ml of solvent is added, and the mixture is shaken at 60° C. for 60 minutes and then at 25° C. and 600 rpm for 24 h. When the solution is clear, more solid material is added until a saturated solution is formed. After being cooled to room temperature, the samples are filtered through a syringe filter (0.2 μm). The solutions are stored in glass vials at room temperature for 7 days, and the solubility is determined by HPTLC on days 1 and 7. For this purpose, the filtered solutions are diluted.
Calibration: Making up a standard solution: about 6 mg of substance are dissolved in 20 ml of 2-methyl-THF. If it is not possible to dissolve the material under these conditions, the concentration can be reduced. The stock solution is diluted for the calibration (standardization).
Chromatographic conditions (HPTLC): plate: HPTLC RP 18 F254, 10×20 cm eluent: methanol/2-methyl-THF 70/30 (V/V)
HPTLC measurement: The HPTLC plate is scanned by a TLC scanner, peaks are integrated and a calibration function is determined.

[3] abbreviates: Ref. temp. 150, elevated temp. 180.
The mark [4] stands for this setting: Ref. temp. 160, elevated temp. 170.
Setting [5] is: Ref. temp. 160, elevated temp. 180.
Where [6] appears, read: cyclohexylbenzene, read-out: Solubility after 24 hours, Cyclohexylbenzene.
[7] abbreviates: mesitylene, read-out: Solubility after 24 hours, Mesitylene.
Setting [8] is: tetralin, read-out: Solubility after 24 hours, Tetralin.
[9] abbreviates: toluene, read-out: Solubility after 24 hours, Toluene.
The mark [10] stands for this setting: cyclohexylbenzene, read-out: Solubility after 7 days, Cyclohexylbenzene.
Setting [11] is: mesitylene, read-out: Solubility after 7 days, Mesitylene.
[12] abbreviates: tetralin, read-out: Solubility after 7 days, Tetralin.
[13] abbreviates: toluene, read-out: Solubility after 7 days, Toluene.
[14] abbreviates: Ref. temp. 150, elevated temp. 170.

Converted amounts (≈) assume the structure as drawn. Like-named read-outs stand apart in the source and are kept apart here.

`c1ccc(-c2cccc(-c3cc(-c4cccc(-c5ccccc5)c4)cc(C4(c5cc(-c6cccc(-c7ccccc7)c6)cc(-c6cccc(-c7ccccc7)c6)c5)c5ccccc5-c5ccccc54)c3)c2)cc1` [Compound B-1, reference compound]: the “State of film after baking at elevated temp.” value (shortened to “State of film after baking”) is “cloudy” in data set [1] (setting [3]), “slightly cloudy” in data set [1] (setting [4]) and “cloudy” in data set [1] (setting [5]). In addition, the solubility at 24 h was less than 20 mg/mL in data set [2] (setting [6]), more than 50 mg/mL in data set [2] (setting [7]), more than 50 mg/mL in data set [2] (setting [8]) and more than 50 mg/mL in data set [2] (setting [9]). Besides, the solubility at 7 days in data set [2] (setting [10]) is less than 20 mg/mL; in data set [2] (setting [11]), less than 40 mg/mL; in data set [2] (setting [12]), more than 50 mg/mL; in data set [2] (setting [13]), more than 50 mg/mL.
For the compound `c1ccc(-c2cc(-c3ccccc3)cc(-c3cccc(-c4cccc(C5(c6cccc(-c7cccc(-c8cc(-c9ccccc9)cc(-c9ccccc9)c8)c7)c6)c6ccccc6-c6ccccc65)c4)c3)c2)cc1` [Compound B-2, reference compound], the “State of film after baking” value in data set [1] (setting [5]) is “slightly cloudy”. The solubility at 24 h in data set [2] (setting [6]) is more than 50 mg/mL; in data set [2] (setting [7]), less than 1 mg/mL; in data set [2] (setting [8]), more than 50 mg/mL; in data set [2] (setting [9]) it was less than 1 mg/mL. Further, the solubility at 7 days in data set [2] (setting [10]) is less than 1 mg/mL; in data set [2] (setting [11]), less than 1 mg/mL; in data set [2] (setting [12]), less than 20 mg/mL; in data set [2] (setting [13]), less than 1 mg/mL.
As to `c1ccc(-c2cccc(-c3cc(-c4cccc(-c5ccccc5)c4)cc(C4(c5cc(-c6cccc(-c7ccccc7)c6)cc(-c6cccc(-c7ccccc7)c6)c5)c5ccccc5-c5ccc(-c6ccccc6)cc54)c3)c2)cc1` [Compound B-3, reference compound], the solubility at 24 h in data set [2] (setting [6]) is more than 50 mg/mL; in data set [2] (setting [7]), less than 50 mg/mL; in data set [2] (setting [8]), less than 50 mg/mL; in data set [2] (setting [9]) it was more than 50 mg/mL. In addition, the solubility at 7 days was more than 50 mg/mL in data set [2] (setting [10]), less than 40 mg/mL in data set [2] (setting [11]), less than 50 mg/mL in data set [2] (setting [12]) and more than 50 mg/mL in data set [2] (setting [13]).
Turning to `c1ccc(-c2cccc(-c3cc(-c4ccccc4)cc(-c4cccc(C5(c6cccc(-c7cc(-c8ccccc8)cc(-c8cccc(-c9ccccc9)c8)c7)c6)c6ccccc6-c6ccccc65)c4)c3)c2)cc1` [Compound B-4, reference compound], the “State of film after baking” value in data set [1] (setting [3]) is on record as “slightly cloudy”.
In the case of `c1ccc(-c2cc(-c3ccccc3)cc(-c3cccc(-c4cccc(C5(c6cccc(-c7cccc(-c8cc(-c9ccccc9)cc(-c9ccccc9)c8)c7)c6)c6ccccc6-c6c(-c7ccccc7)cccc65)c4)c3)c2)cc1` [Compound M-0002], in data set [1] (setting [3]), the “State of film after baking” value is “clear”. In data set [1] (setting [5]), the “State of film after baking” value is “clear”. The “baking of the layer at higher temperature, cloudiness, compared with B-2” value in data set [1] (versus B-2) is on record as “can be baked at higher temperature without cloudiness”. In data set [2] (cyclohexylbenzene), the “Solubility after 24 hours, Cyclohexylbenzene” value was less than 1 mg/mL and the “Solubility after 7 days, Cyclohexylbenzene” value is less than 1 mg/mL. In data set [2] (mesitylene), the “Solubility after 24 hours, Mesitylene” value was more than 50 mg/mL and the “Solubility after 7 days, Mesitylene” value was determined as 50 mg/mL (≈ 49.8 mM). Further, in data set [2] (tetralin), the “Solubility after 24 hours, Tetralin” value is more than 50 mg/mL and the “Solubility after 7 days, Tetralin” value was more than 50 mg/mL. In data set [2] (toluene), the “Solubility after 24 hours, Toluene” value was more than 50 mg/mL and the “Solubility after 7 days, Toluene” value was more than 50 mg/mL.
`c1ccc(-c2cccc(-c3cc(-c4cccc(-c5ccccc5)c4)cc(C4(c5cc(-c6cccc(-c7ccccc7)c6)cc(-c6cccc(-c7ccccc7)c6)c5)c5ccccc5-c5c(-c6ccccc6)cccc54)c3)c2)cc1` [Compound M-0005]: in data set [1] (setting [14]), the “State of film after baking” value is “clear”. Further, the “State of film after baking” value in data set [1] (setting [4]) is recorded as “clear”. In data set [2] (cyclohexylbenzene), the “Solubility after 24 hours, Cyclohexylbenzene” value is more than 50 mg/mL and the “Solubility after 7 days, Cyclohexylbenzene” value is more than 50 mg/mL. Also, the “solubility in cyclohexylbenzene compared with B-1” value in data set [2] (cyclohexylbenzene, versus B-1) is reported as “significantly better”. Besides, in data set [2] (mesitylene), the “Solubility after 24 hours, Mesitylene” value is more than 50 mg/mL and the “Solubility after 7 days, Mesitylene” value is more than 50 mg/mL. Besides, the “long-term stability of the solution in mesitylene compared with B-1” value in data set [2] (mesitylene, versus B-1) is “significantly better”. Further, in data set [2] (tetralin), the “Solubility after 24 hours, Tetralin” value is more than 50 mg/mL and the “Solubility after 7 days, Tetralin” value was less than 50 mg/mL. Besides, in data set [2] (toluene), the “Solubility after 24 hours, Toluene” value is more than 50 mg/mL and the “Solubility after 7 days, Toluene” value was more than 50 mg/mL.
Turning to `c1ccc(-c2cccc(-c3cc(-c4cccc(-c5ccccc5)c4)cc(C4(c5cc(-c6cccc(-c7ccccc7)c6)cc(-c6cccc(-c7ccccc7)c6)c5)c5ccccc5-c5c(-c6ccccc6-c6ccccc6)cccc54)c3)c2)cc1` [Compound M-0043], in data set [1] (setting [3]), the “State of film after baking” value is “clear”. Also, in data set [2] (cyclohexylbenzene), the “Solubility after 24 hours, Cyclohexylbenzene” value was less than 50 mg/mL and the “Solubility after 7 days, Cyclohexylbenzene” value is less than 50 mg/mL. Further, in data set [2] (mesitylene), the “Solubility after 24 hours, Mesitylene” value is less than 50 mg/mL and the “Solubility after 7 days, Mesitylene” value is less than 50 mg/mL. Moreover, in data set [2] (tetralin), the “Solubility after 24 hours, Tetralin” value was more than 50 mg/mL and the “Solubility after 7 days, Tetralin” value is more than 50 mg/mL. For the same compound, in data set [2] (toluene), the “Solubility after 24 hours, Toluene” value is less than 50 mg/mL and the “Solubility after 7 days, Toluene” value is less than 50 mg/mL.
`Cc1cc(C)c(-c2cccc3c2-c2ccccc2C3(c2cc(-c3cc(-c4ccc(C(C)(C)C)cc4)cc(-c4ccc(C(C)(C)C)cc4)c3)cc(-c3cc(-c4ccc(C(C)(C)C)cc4)cc(-c4ccc(C(C)(C)C)cc4)c3)c2)c2cc(-c3cc(-c4ccc(C(C)(C)C)cc4)cc(-c4ccc(C(C)(C)C)cc4)c3)cc(-c3cc(-c4ccc(C(C)(C)C)cc4)cc(-c4ccc(C(C)(C)C)cc4)c3)c2)c(C)c1` [Compound M-0086]: in data set [1] (setting [3]), the “State of film after baking” value is reported as “clear”. Further, the solubility at 24 h in data set [2] (setting [6]), in data set [2] (setting [7]), in data set [2] (setting [8]) and in data set [2] (setting [9]) was more than 50 mg/mL in each case. The solubility at 7 days in data set [2] (setting [10]), in data set [2] (setting [11]), in data set [2] (setting [12]) and in data set [2] (setting [13]) was more than 50 mg/mL each time.
Consider `c1ccc(-c2cc(-c3ccccc3)cc(-c3cccc(-c4cccc(C5(c6cccc(-c7cccc(-c8cc(-c9ccccc9)cc(-c9ccccc9)c8)c7)c6)c6ccccc6-c6c(-c7cccc(-c8ccccc8)c7)cccc65)c4)c3)c2)cc1` [Compound M-0162], for which the “State of film after baking” value in data set [1] (setting [3]) is given as “clear”. The solubility at 24 h was less than 50 mg/mL in data set [2] (setting [6]), more than 50 mg/mL in data set [2] (setting [7]), more than 50 mg/mL in data set [2] (setting [8]) and more than 50 mg/mL in data set [2] (setting [9]). For the same compound, the solubility at 7 days in data set [2] (setting [10]) was less than 50 mg/mL; in data set [2] (setting [11]), more than 50 mg/mL; in data set [2] (setting [12]), more than 50 mg/mL; in data set [2] (setting [13]), more than 50 mg/mL.
In the case of `Cc1ccc2c(c1)-c1c(-c3cccc(-c4ccccc4)c3)cccc1C2(c1cccc(-c2cccc3c2-c2ccccc2C3(C)C)c1)c1cccc(-c2cccc3c2-c2ccccc2C3(C)C)c1` [Compound M-0172], the “State of film after baking” value in data set [1] (setting [14]) is “clear”. In addition, in data set [2] (cyclohexylbenzene), the “Solubility after 24 hours, Cyclohexylbenzene” value was less than 40 mg/mL and the “Solubility after 7 days, Cyclohexylbenzene” value was less than 40 mg/mL. Moreover, in data set [2] (mesitylene), the “Solubility after 24 hours, Mesitylene” value was less than 30 mg/mL and the “Solubility after 7 days, Mesitylene” value was less than 30 mg/mL. In data set [2] (tetralin), the “Solubility after 24 hours, Tetralin” value was less than 40 mg/mL and the “Solubility after 7 days, Tetralin” value was less than 40 mg/mL. For the same compound, in data set [2] (toluene), the “Solubility after 24 hours, Toluene” value was less than 30 mg/mL and the “Solubility after 7 days, Toluene” value was less than 30 mg/mL.
